According to US9440926B2, “Antiviral compounds and methods” (Biotron Limited, priority 2005, dated 2016):
Read-outs that look alike come from different tables or passages of the source.

Legend:
Assay type in all cases: cell-based
HIV-1 strain Ba-L = assay: HIV-1 Ba-L growth inhibition in primary macrophages (p24 ELISA); conditions: for IC50: Human immunodeficiency virus 1, BAL, Primary macrophage
Experimental: The inhibition specifically of HIV-1 growth by the compounds of the invention was tested in primary macrophages in vitro using a method similar to that used to assess antibody neutralization (VanCott T C et al (1999)). In the present case, the laboratory adapted HIV-1 strain Ba-L was used, which is known to infect macrophages.
Peripheral Blood Mononuclear Cells (PBMC) were prepared from healthy donors using buffy-coat packs obtained from the Australian Red Cross Blood Service (ARCBS). Blood was received the day following donation, and had been depleted of serum and platelets, leaving a small volume (less than 100 mL) of concentrated leukocytes.
Leukocytes were separated from blood cells and granulocytes by density gradient centrifugation (Ficoll Paque) and washed extensively in PBS^− (without Ca/Mg) to remove platelets. Recovered cells were allowed to adhere to plastic tissue culture flasks (Becton Dickinson) for 2 hr, 37° C., 5% CO2, in media (DMEM (high)/10% AB serum/50 ug/mL gentamicin/2 mM L-glutamine) during which time the myeloid cells formed an adherent monolayer leaving lymphocytes unattached.
Non-adherent lymphocytes were removed by washing with warm PBS^+ (with Ca/Mg) and were generally discarded. In some cases those cells were recovered and frozen in media/10% DMSO for use in viral stock infections. The adherent monocytes were recovered by scraping gently with a plastic cell scraper. The myeloid cells were then plated into 96-well plates at a cell concentration of 1.5×10^6/mL, and allowed to fully differentiate over a period of 14 days.
Macrophages were allowed to differentiate over a 14 day period, with media changes as required. On day 14, cells were infected in the presence of decreasing concentrations of BIT compounds over a range 0-10 μM. Samples of 25 μL culture supernatants were removed from each well on day 7 and fresh media plus compound dilution was added.
After 7 days the samples with and without compound were analysed to assess the level of virus present in the wells, using a p24 ELISA (Innotest). Virus levels in samples were converted to “percentage of control virus growth” values based on the controls (containing no compound). From that dose response curve (example FIG. 1) the IC50 was calculated and used as a measure of compound anti-HIV activity.

HCV p7 = molecular target: T1, HCV p7 (Hepatitis C virus genotype 1a, UniProt P27958); assay: Bacterial bioassay, HCV p7; design: scale not given here; conditions: mean bacterial bioassay score; p7 of HCV
T1 construct: expressed in transfected cells
Excerpt: (§1) The bacterial bioassay method used in the present example to test the anti-viral activity of the compounds against different viral targets was described in detail in PCT/2004/000866, incorporated in its entirety herein by reference. Vpu, p7 and M referred to in the table are small membrane proteins encoded by HIV, HCV and Dengue viruses, respectively, which have functional activities supporting viral growth and/or replication.

Den M = molecular target: T2, Den M (Dengue virus type 1, UniProt P33478); assay: Bacterial bioassay, Den M; design: scale not given here; conditions: mean bacterial bioassay score; M protein of Dengue virus
T2 construct: expressed in transfected cells
Excerpt: as §1

[1] = Cytotoxicity to cells in the viral inhibition assay (MTT assay); conditions: human, primary human macrophages, read-out: TC50 (the source's name)
Experimental: The toxicity of test compounds to cells in the viral inhibition assay was determined using the MTT assay (Pauwels R, et al. (1988); D'Cruz O J et al. (1999); Joo H. (2003)). This method utilises Thiazolyl Blue (MTT), which is added to the cell culture (100 ug/well), and incubated for 4-5 hours whilst the live, metabolically active cells convert the chemical to its purple coloured metabolite, which forms intracellular crystals. The purple colour is measured colourimetrically (570-590 nm) once cells have been permeabilised using acidified isopropanol containing 10% triton X-100. The most intense colour development occurs in wells where the metabolising cells are most numerous. […] Those values were estimated manually from the Percentage Viability vs Concentration dose response curves (FIG. 1). The compound toxicity to cells in culture was taken into account in inhibition experiments and in separate experiments involving increased concentrations of compound. TC50 values were estimated in separate experiments (not shown) where concentrations of compound were greater.

Vpu = molecular target: T3, Vpu (Human immunodeficiency virus type 1 group M subtype B, UniProt P05919); assay: Bacterial bioassay, Vpu; conditions: mean bacterial bioassay score; Vpu of HIV
T3 construct: expressed in transfected cells
Excerpt: as §1

[2] = additional compounds, same assay system (HIV-1Ba-L, primary macrophages), estimated from dose response curves, read-out: Estimated IC50
[3] = additional compounds, same assay system, MTT

T2 sequence (P33478 206-280): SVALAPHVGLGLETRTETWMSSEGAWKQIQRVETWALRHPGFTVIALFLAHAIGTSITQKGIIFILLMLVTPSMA
T1 sequence (P27958 747-809): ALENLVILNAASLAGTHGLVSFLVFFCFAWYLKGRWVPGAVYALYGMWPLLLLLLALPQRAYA
T3 sequence (P05919 whole entry): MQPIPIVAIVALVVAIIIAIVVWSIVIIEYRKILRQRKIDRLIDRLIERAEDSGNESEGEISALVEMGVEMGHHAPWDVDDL

COc1c(C(=O)NC(=N)N)ccc2ccccc12 [BIT301, (1-methoxy-2-napthoyl)guanidine]
IC50 (HIV-1 strain Ba-L; [2]): < 2.5 µM
Average Bacterial Assay Score, HCV p7 (HCV p7): 0.25
Average Bacterial Assay Score, Den M (Den M): 0.50
CC50 [1, 3]: > 50 µM
Average Bacterial Assay Score, Vpu (Vpu): 1.54

N=C(N)NC(=O)c1ccc2cc(-c3ccsc3)ccc2c1 [BIT305, (6-(3-thienyl)-2-napthoyl)guanidine]
IC50 (HIV-1 strain Ba-L; [2]): < 0.63 µM
Average Bacterial Assay Score, HCV p7 (HCV p7): 0.00
Average Bacterial Assay Score, Den M (Den M): 1.15
CC50 [1, 3]: < 10 µM
Average Bacterial Assay Score, Vpu (Vpu): 0.38

Cc1ccc2cc(C(=O)NC(=N)N)ccc2c1 [BIT306, (6-methyl-2-napthoyl)guanidine]
IC50 (HIV-1 strain Ba-L; [2]): < 10 µM
Average Bacterial Assay Score, HCV p7 (HCV p7): 0.25
Average Bacterial Assay Score, Den M (Den M): 2.53
CC50 [1, 3]: 10 to 50 µM
Average Bacterial Assay Score, Vpu (Vpu): 0.52

N=C(N)NC(=O)c1ccc2c(Br)cccc2c1 [BIT303, (5-bromo-2-napthoyl)guanidine]
IC50 (HIV-1 strain Ba-L; [2]): < 2.5 µM
Average Bacterial Assay Score, HCV p7 (HCV p7): 0.00
Average Bacterial Assay Score, Den M (Den M): 2.10
CC50 [1, 3]: 10 to 50 µM
Average Bacterial Assay Score, Vpu (Vpu): 0.22

Cn1cc(-c2cccc3cc(C(=O)NC(=N)N)ccc23)cn1 [BIT225, 5-(1-methylpyrazol-4-yl)2-naphthoylguanidine]
IC50 (HIV-1 strain Ba-L; 168 h, against HIV-1Ba-L in primary macrophages, p24 ELISA after 7 days, estimated from dose response curves (FIG. 1), 0-10 μM, read-out: IC50): 2.5 µM
AI (Antiviral Index) (HIV-1 strain Ba-L; calculated by formula from TC50 and IC50, HIV-1Ba-L in primary macrophages): >80
Average Bacterial Assay Score, HCV p7 (HCV p7): 1.2
Average Bacterial Assay Score, Den M (Den M): 0.9
CC50 ([1]; 50% cell viability, MTT assay, estimated in separate experiments at greater compound concentrations): > 200 µM
Average Bacterial Assay Score, Vpu (Vpu): 1.4
